Assay results: publication PMC12028158, “Synthesis and In Vitro Evaluation of the Anticancer Effect of Novel Phosphonium Vindoline Derivatives” (International Journal of Molecular Sciences, 2025)
Where two headings read alike, the source gives them in different places.

Experiments:
Assay type in all cases: cell-based
CCRF-CEM [1] = assay: NCI60 five-dose screen; conditions: Homo sapiens, Leukemia, read-out: GI50
K-562 = assay: NCI60 five-dose screen; conditions: Homo sapiens, K562, K-562, Leukemia, read-out: GI50
RPMI-8226 = assay: NCI60 five-dose screen; conditions: Homo sapiens, RPMI-8226, Leukemia, read-out: GI50
NCI-H226 = assay: NCI60 five-dose screen; conditions: Homo sapiens, NCI-H226, Non-small Cell Lung Cancer, read-out: GI50
NCI-H322M = assay: NCI60 five-dose screen; conditions: Homo sapiens, Non-small Cell Lung Cancer, read-out: GI50
COLO 205 = assay: NCI60 five-dose screen; conditions: Homo sapiens, read-out: GI50
HCT-116 = assay: NCI60 five-dose screen; conditions: Homo sapiens, HCT-116, Colon Cancer, read-out: GI50
HCT-15 = assay: NCI60 five-dose screen; conditions: Homo sapiens, HCT-15, Colon Cancer, read-out: GI50
SF-268 = assay: NCI60 five-dose screen; conditions: Homo sapiens, SF-268, CNS Cancer, read-out: GI50
SF-539 [2] = assay: NCI60 five-dose screen; conditions: Homo sapiens, SF-539, CNS Cancer, read-out: GI50
SNB-19 = assay: NCI60 five-dose screen; conditions: Homo sapiens, read-out: GI50
MALME-3M = assay: NCI60 five-dose screen; conditions: Homo sapiens, MALME-3M, Melanoma, read-out: GI50
UACC-62 [3] = assay: NCI60 five-dose screen; conditions: Homo sapiens, UACC-62, Melanoma, read-out: GI50
IGROV1 [4] = assay: NCI60 five-dose screen; conditions: Homo sapiens, IGROV-1, IGROV1, Ovarian Cancer, read-out: GI50
OVCAR-8 [5] = assay: NCI60 five-dose screen; conditions: Homo sapiens, OVCAR-8, Ovarian Cancer, read-out: GI50
NCI/ADR-RES [6] = assay: NCI60 five-dose screen; conditions: Homo sapiens, Ovarian Cancer, read-out: GI50
SN12C [7] = assay: NCI60 five-dose screen; conditions: Homo sapiens, Renal Cancer, read-out: GI50
TK-10 = assay: NCI60 five-dose screen; conditions: Homo sapiens, TK-10, Renal Cancer, read-out: GI50
MCF7 [8] = assay: NCI60 five-dose screen; conditions: Homo sapiens, read-out: GI50
HS 578T = assay: NCI60 five-dose screen; conditions: Homo sapiens, HS 578T, Breast Cancer, read-out: GI50
BT-549 [9] = assay: NCI60 five-dose screen; conditions: Homo sapiens, BT-549, Breast Cancer, read-out: GI50
Leukemia panel = assay: NCI60 five-dose screen, panel mean; conditions: Homo sapiens, mean over Leukemia panel
Colon Cancer panel = assay: NCI60 five-dose screen, panel mean; conditions: Homo sapiens, mean over Colon Cancer panel
CNS Cancer panel = assay: NCI60 five-dose screen, panel mean; conditions: Homo sapiens, mean over CNS Cancer panel
Ovarian Cancer panel = assay: NCI60 five-dose screen, panel mean; conditions: Homo sapiens, mean over Ovarian Cancer panel
Prostate Cancer panel = assay: NCI60 five-dose screen, panel mean; conditions: Homo sapiens, mean over Prostate Cancer panel
Breast Cancer panel = assay: NCI60 five-dose screen, panel mean; conditions: Homo sapiens, mean over Breast Cancer panel
CCRF-CEM [10] = assay: NCI60 one-dose screen; conditions: Homo sapiens, 10 μM, one-dose, read-out: Growth percent
EKVX [11] = assay: NCI60 one-dose screen; conditions: Homo sapiens, 10 μM, one-dose, read-out: Growth percent
NCI-H460 = assay: NCI60 one-dose screen; conditions: Homo sapiens; NCI-H460, 10 μM, one-dose; read-out: Growth percent
HCC-2998 = assay: NCI60 one-dose screen; conditions: Homo sapiens; HCC-2998, 10 μM, one-dose; read-out: Growth percent
SF-539 [12] = assay: NCI60 one-dose screen; conditions: Homo sapiens; SF-539, 10 μM, one-dose; read-out: Growth percent
SNB-75 = assay: NCI60 one-dose screen; conditions: Homo sapiens; SNB-75, 10 μM, one-dose; read-out: Growth percent
U251 = assay: NCI60 one-dose screen; conditions: Homo sapiens, U-251; U251, 10 μM, one-dose; read-out: Growth percent
SK-MEL-5 = assay: NCI60 one-dose screen; conditions: Homo sapiens; SK-MEL-5, 10 μM, one-dose; read-out: Growth percent
UACC-257 = assay: NCI60 one-dose screen; conditions: Homo sapiens; UACC-257, 10 μM, one-dose; read-out: Growth percent
UACC-62 [13] = assay: NCI60 one-dose screen; conditions: Homo sapiens; UACC-62, 10 μM, one-dose; read-out: Growth percent
IGROV1 [14] = assay: NCI60 one-dose screen; conditions: Homo sapiens, IGROV-1; IGROV1, 10 μM, one-dose; read-out: Growth percent
OVCAR-3 = assay: NCI60 one-dose screen; conditions: Homo sapiens; OVCAR-3, 10 μM, one-dose; read-out: Growth percent
OVCAR-8 [15] = assay: NCI60 one-dose screen; conditions: Homo sapiens; OVCAR-8, 10 μM, one-dose; read-out: Growth percent
NCI/ADR-RES [16] = assay: NCI60 one-dose screen; conditions: Homo sapiens, 10 μM, one-dose, read-out: Growth percent
CAKI-1 = assay: NCI60 one-dose screen; conditions: Homo sapiens; CAKI-1, 10 μM, one-dose; read-out: Growth percent
RXF 393 = assay: NCI60 one-dose screen; conditions: Homo sapiens; RXF 393, 10 μM, one-dose; read-out: Growth percent
SN12C [17] = assay: NCI60 one-dose screen; conditions: Homo sapiens, 10 μM, one-dose, read-out: Growth percent
PC-3 = assay: NCI60 one-dose screen; conditions: Homo sapiens; PC-3, 10 μM, one-dose; read-out: Growth percent
MCF7 [18] = assay: NCI60 one-dose screen; conditions: Homo sapiens; MCF7, 10 μM, one-dose; read-out: Growth percent
BT-549 [19] = assay: NCI60 one-dose screen; conditions: Homo sapiens; BT-549, 10 μM, one-dose; read-out: Growth percent
EKVX [20] = assay: NCI60 five-dose screen; conditions: Homo sapiens, Non-small Cell Lung Cancer, read-out: GI50

CC[C@]12C=CCN3CC[C@@]4(c5ccc(OC)cc5N(C)[C@H]4[C@@](O)(C(=O)OC)[C@@H]1OC(=O)CCC[P+](c1cc(C)c(OC)c(C)c1)(c1cc(C)c(OC)c(C)c1)c1cc(C)c(OC)c(C)c1)[C@@H]32 [9e]
GI50 (CCRF-CEM [1]; five-dose): 114 nM | GI50 (K-562; five-dose): 195 nM | GI50 (RPMI-8226; five-dose): 20 nM | GI50 (NCI-H226; five-dose): 230 nM | GI50 (NCI-H322M; five-dose): 342 nM | GI50 (COLO 205; COLO 205, COLO 205, Colon Cancer, five-dose): 91 nM | GI50 (COLO 205; COLO 205, colon cancer COLO-205, text): < 100 nM | GI50 (HCT-116; five-dose): 223 nM | GI50 (HCT-15; five-dose): 760 nM | GI50 (SF-268; five-dose): 231 nM | GI50 (SF-539 [2]; five-dose): 307 nM | GI50 (SNB-19; SNB-19, CNS cancer SNB-19, text): < 100 nM | GI50 (SNB-19; SNB-19, SNB-19, CNS Cancer, five-dose): 59 nM | GI50 (MALME-3M; five-dose): 288 nM | GI50 (UACC-62 [3]; five-dose): 160 nM | GI50 (IGROV1 [4]; five-dose): 193 nM | GI50 (OVCAR-8 [5]; five-dose): 300 nM | GI50 (NCI/ADR-RES [6]; five-dose): 5110 nM | GI50 (SN12C [7]; five-dose): 159 nM | GI50 (TK-10; five-dose): 277 nM | GI50 (MCF7 [8]; MCF7, MCF7, Breast Cancer, five-dose): 44 nM | GI50 (MCF7 [8]; MCF7, breast cancer MCF7, text): < 100 nM | GI50 (HS 578T; five-dose): 185 nM | GI50 (BT-549 [9]; five-dose): 170 nM | GI50 (Leukemia panel; read-out: Mean GI50): 110 nM | GI50 (Colon Cancer panel; read-out: Mean GI50): 240 nM | GI50 (CNS Cancer panel; read-out: Mean GI50): 180 nM | GI50 (Ovarian Cancer panel; read-out: Mean GI50): 940 nM | GI50 (Prostate Cancer panel; read-out: Mean GI50): 250 nM | GI50 (Breast Cancer panel; read-out: Mean GI50): 140 nM | activity at 10 µM (CCRF-CEM [10]): -95.7% | activity at 10 µM (EKVX [11]): -98.2% | activity at 10 µM (NCI-H460): -89.5% | activity at 10 µM (HCC-2998): -97.9% | activity at 10 µM (SF-539 [12]): -97.2% | activity at 10 µM (SNB-75): -98.9% | activity at 10 µM (U251): -96.5% | activity at 10 µM (SK-MEL-5): -97.5% | activity at 10 µM (UACC-257): -99.3% | activity at 10 µM (UACC-62 [13]): -97.7% | activity at 10 µM (IGROV1 [14]): -99% | activity at 10 µM (OVCAR-3): -99% | activity at 10 µM (OVCAR-8 [15]): -95.5% | activity at 10 µM (NCI/ADR-RES [16]): -87.2% | activity at 10 µM (CAKI-1): -97% | activity at 10 µM (RXF 393): -98.6% | activity at 10 µM (SN12C [17]): -96.7% | activity at 10 µM (PC-3): -97.7% | activity at 10 µM (MCF7 [18]): -94.5% | activity at 10 µM (BT-549 [19]): -98%

CCC12C=CCN3CCC4(c5ccc(OC)cc5N(C)C4C(O)(C(=O)OC)C1OC(=O)c1ccc(C[P+](c4ccccc4)(c4ccccc4)c4ccccc4)cc1)C32 (stereo not shown) [compound 12]
GI50 (CCRF-CEM [1]): 1300 nM | GI50 (K-562): 448 nM | GI50 (RPMI-8226): 325 nM | GI50 (EKVX [20]): 2030 nM | GI50 (NCI-H226): 1540 nM | GI50 (NCI-H322M): 4760 nM | GI50 (COLO 205; COLO 205, COLO 205, Colon Cancer): 313 nM | GI50 (HCT-116): 1590 nM | GI50 (HCT-15): 27400 nM | GI50 (SF-268): 1280 nM | GI50 (SF-539 [2]): 1260 nM | GI50 (SNB-19; SNB-19, SNB-19, CNS Cancer): 725 nM | GI50 (MALME-3M): 652 nM | GI50 (UACC-62 [3]): 1030 nM | GI50 (IGROV1 [4]): 885 nM | GI50 (OVCAR-8 [5]): 3180 nM | GI50 (NCI/ADR-RES [6]): > 100000 nM | GI50 (SN12C [7]): 708 nM | GI50 (TK-10): 2840 nM | GI50 (MCF7 [8]; MCF7, MCF7, Breast Cancer): 442 nM | GI50 (HS 578T): 1270 nM | GI50 (BT-549 [9]): 538 nM | GI50 (Leukemia panel; read-out: GI50 Mean): 770 nM | GI50 (Colon Cancer panel; read-out: GI50 Mean): 4690 nM | GI50 (CNS Cancer panel; read-out: GI50 Mean): 1320 nM | GI50 (Ovarian Cancer panel; read-out: GI50 Mean): 15800 nM | GI50 (Prostate Cancer panel; read-out: GI50 Mean): 1130 nM | GI50 (Breast Cancer panel; read-out: GI50 Mean): 610 nM | activity at 10 µM (CCRF-CEM [10]): -46.4% | activity at 10 µM (EKVX [11]): 28.7% | activity at 10 µM (NCI-H460): -62.8% | activity at 10 µM (HCC-2998): -74.6% | activity at 10 µM (SF-539 [12]): -90.6% | activity at 10 µM (SNB-75): -61.7% | activity at 10 µM (U251): -72.6% | activity at 10 µM (SK-MEL-5): -98.5% | activity at 10 µM (UACC-257): -67.6% | activity at 10 µM (UACC-62 [13]): -86.9% | activity at 10 µM (IGROV1 [14]): -69.6% | activity at 10 µM (OVCAR-3): -63.4% | activity at 10 µM (OVCAR-8 [15]): -18.5% | activity at 10 µM (CAKI-1): -7.04% | activity at 10 µM (RXF 393): -61.8% | activity at 10 µM (SN12C [17]): -46.5% | activity at 10 µM (PC-3): -21.9% | activity at 10 µM (MCF7 [18]): -52.8% | activity at 10 µM (BT-549 [19]): -89.1%
